For this assay, the target named is T1, Human IP6K1 (Homo sapiens, UniProt Q92551).
T1 construct: GST (N, cleaved yes); made in house; host or cells: C43 E. coli, pGEX-6P-2
Briefly: IP6K1 high-throughput screen of the Sigma LOPAC (ADP-Glo Max, single point).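 Also: final compound concentration 10µM in 5% DMSO.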 In kind it is biochemical. In general terms: In ADP-Glo the light output rises with the ADP produced.

[1] abbreviates: LOPAC single-point screen, ADP-Glo Max luminescence raw signal per well.
Where [2] appears, read: LOPAC single-point screen, Z-score relative to plate average and StDev.
Setting [3] is: LOPAC single-point screen, ADP-Glo Max raw signal per well.
Where [4] appears, read: LOPAC single-point screen, Z-score from raw signal with plate average and StDev.
[5] abbreviates: Sigma LOPAC single-point screen, ADP-Glo Max raw signal per well.
The mark [6] stands for this setting: Sigma LOPAC single-point screen, Z-score from plate average and StDev.
The mark [7] stands for this setting: LOPAC single-point screen, Z-score from plate average and StDev.
[8] abbreviates: LOPAC single-point screen, Z-score against plate average and StDev.

Structures can show the parent of a compound that is named as a salt. Where two headings read alike, the source gives them in different places.

T1 sequence (Q92551 whole entry): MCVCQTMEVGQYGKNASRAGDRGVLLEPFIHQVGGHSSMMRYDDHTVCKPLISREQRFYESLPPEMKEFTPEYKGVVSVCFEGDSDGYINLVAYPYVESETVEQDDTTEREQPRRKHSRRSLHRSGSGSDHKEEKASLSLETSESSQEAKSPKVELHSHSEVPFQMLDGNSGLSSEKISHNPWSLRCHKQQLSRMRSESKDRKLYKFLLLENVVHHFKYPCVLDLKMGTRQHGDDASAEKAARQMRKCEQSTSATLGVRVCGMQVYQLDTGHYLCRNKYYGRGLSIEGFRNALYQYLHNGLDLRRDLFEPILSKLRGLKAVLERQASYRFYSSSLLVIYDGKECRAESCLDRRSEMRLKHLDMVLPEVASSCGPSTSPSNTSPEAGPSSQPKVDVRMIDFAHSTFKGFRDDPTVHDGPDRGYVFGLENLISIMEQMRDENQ

As to `O=C1c2c(O)ccc(O)c2C(=O)c2c(NCCNCCO)ccc(NCCNCCO)c21` [Mitoxantrone], the “Raw Signal” value under setting [1] is reported as 48302. Further, the Z-score under setting [2] is recorded as -1.024.
As for `CC1COc2c(N3CCN(C)CC3)c(F)cc3c(=O)c(C(=O)O)cn1c23` (stereo not shown) [Ofloxacin], the “Raw Signal” value under setting [3] is listed as 52269. Moreover, under setting [4], the Z-score is recorded as -0.357.
Consider `N=C(NCCC[C@H](N)C(=O)O)N[N+](=O)[O-]` [NG-Nitro-L-arginine], for which, under setting [5], the “Raw Signal” value stood at 57372. Besides, the Z-score under setting [6] was found to be 0.5005.
Turning to `CCCCCCC(C)(C)c1ccc([C@@H]2C[C@H](O)CC[C@H]2CCCO)c(O)c1` [CP55940], the “Raw Signal” value under setting [3] turned out to be 55459. For the same compound, the Z-score under setting [4] was -0.4322.
On to `CCCCNc1c(C(=O)OCC)c(C)nc2c1cnn2CC` [Tracazolate], for which the “Raw Signal” value under setting [5] came out at 59222. Besides, under setting [6], the Z-score was 0.6213.
For the compound `CC(C)C(=O)Nc1ccc([N+](=O)[O-])c(C(F)(F)F)c1` [Flutamide], under setting [1], the “Raw Signal” value worked out at 64684. Also, the Z-score under setting [7] stood at 1.9328.
Turning to `Cl.NCC(O)c1cc(O)c(O)cc1F` (stereo not shown) [6-Fluoronorepinephrine hydrochloride], the “Raw Signal” value under setting [1] turned out to be 54023. Moreover, the Z-score under setting [2] was -0.6852.
For `N[C@]1(C(=O)O)CC[C@H](C(=O)O)C1` (racemic) [trans-(±)-ACPD], the “Raw Signal” value under setting [3] amounted to 56973. Moreover, the Z-score under setting [4] is -0.1656.
`Nc1ccn([C@H]2CC[C@@H](CO)O2)c(=O)n1` [2 ,3 -dideoxycytidine]: the “Raw Signal” value under setting [1] was determined as 50390. The Z-score under setting [2] is on record as -0.9702.
`O=C(c1ccc(OCCN2CCCCC2)cc1)c1c(-c2ccc(O)cc2)sc2cc(O)ccc12` [Raloxifene hydrochloride]: the “Raw Signal” value under setting [3] came out at 54124. Moreover, under setting [4], the Z-score is reported as -0.3691.
Regarding `CC(N)(Cc1ccc(O)cc1)C(=O)O` (racemic) [DL-alpha-Methyl-p-tyrosine], the “Raw Signal” value under setting [1] was 72995. The compound also gave a Z-score under setting [7] of 2.656.
For the compound `CC(=O)Nc1nnc(S(N)(=O)=O)s1` [Acetazolamide], the “Raw Signal” value under setting [1] worked out at 54920. The Z-score under setting [2] was -0.5272.
In the case of `CNCCC=C1c2ccccc2CCc2ccccc21` [Nortriptyline hydrochloride], under setting [3], the “Raw Signal” value is recorded as 54505. Besides, the Z-score under setting [8] is 0.01873.
In the case of `N[C@@H](CCCC(=O)O)C(=O)O` [L-2-aminoadipic acid], the “Raw Signal” value under setting [3] was determined as 59199. Under setting [8], this compound registered a Z-score of 0.2265.
`CC(C(O)c1ccc(O)cc1)N1CCC(Cc2ccccc2)CC1.CC(C(O)c1ccc(O)cc1)N1CCC(Cc2ccccc2)CC1.O=C(O)C(O)C(O)C(=O)O` (stereo not shown) [Ifenprodil tartrate]: under setting [3], the “Raw Signal” value worked out at 56294. This compound also showed a Z-score under setting [8] of 0.3193.
On to `C#CCN[C@H](C)Cc1ccccc1.Cl` [R-(-)-Desmethyldeprenyl hydrochloride], for which the “Raw Signal” value under setting [1] is on record as 52026. For the same compound, the Z-score under setting [2] was -0.6379.
Take `C[C@H](Cc1ccc2c(c1)OC(C(=O)[O-])(C(=O)[O-])O2)NC[C@H](O)c1cccc(Cl)c1.[Na+].[Na+]` [CL 316,243]: the “Raw Signal” value under setting [3] was 56247. For the same compound, the Z-score under setting [4] is recorded as -0.2934.
Consider `CN(N=O)c1ccc(O)c(O)c1` [Me-3,4-dephostatin], for which the “Raw Signal” value under setting [1] is 32245. Also, the Z-score under setting [2] is reported as -3.722.
In the case of `Cn1c(=O)[nH]c2ncn(C)c2c1=O` [1,7-Dimethylxanthine], under setting [3], the “Raw Signal” value turned out to be 53863. Moreover, the Z-score under setting [4] is recorded as -0.2648.
On the same counts, the results for `C=CC1=C(C)c2cc3[nH]c(cc4nc(cc5[nH]c(cc1n2)c(C)c5CCC(=O)O)C(CCC(=O)O)=C4C)c(C)c3C=C` [Protoporphyrin IX disodium] are 54546 and -0.2871.
As for `Cl.Cn1ccc2cc(NC(=O)Nc3cccnc3)ccc21` [SB 200646 hydrochloride], the “Raw Signal” value under setting [3] worked out at 55663. For the same compound, under setting [4], the Z-score is listed as -0.3963.
Turning to `COc1cc2c(CCNC(C)=O)c[nH]c2cc1Cl` [6-Chloromelatonin], the “Raw Signal” value under setting [5] came out at 61765. Under setting [6], the Z-score stood at 0.6784.
On to `Nc1ncnc2c1c(-c1ccc(Oc3ccccc3)cc1)cn2C1CCCC1`, for which the “Raw Signal” value under setting [3] came to 53911. Besides, under setting [4], the Z-score is listed as -0.2551.
For `O=c1[nH]c2cc(Cl)c(Cl)cc2[nH]c1=O` [6,7-Dichloroquinoxaline-2,3-dione], under setting [3], the “Raw Signal” value is recorded as 56553. Under setting [8], this compound had a Z-score of 0.2815.
With `CCc1c(C(=O)OC)ncc2[nH]c3cc(OC)c(OC)cc3c12`, under setting [5], the “Raw Signal” value is recorded as 57006. For the same compound, the Z-score under setting [6] is given as 0.3735.
Take `NC(CCP(=O)(O)O)C(=O)O` (racemic) [(±)-2-Amino-4-phosphonobutyric acid]: under setting [3], the “Raw Signal” value came to 55594. In addition, the Z-score under setting [4] was -0.4085.
For `CCCCc1oc2ccccc2c1C(=O)c1cc(I)c(OCCN(CC)CC)c(I)c1` [Amiodarone hydrochloride], the “Raw Signal” value under setting [3] worked out at 57216. Also, the Z-score under setting [4] is recorded as -0.1228.
With `Cn1c(=O)c2[nH]c(-c3ccccc3)nc2n(C)c1=O` [1,3-Dimethyl-8-phenylxanthine], under setting [3], the “Raw Signal” value came to 54517. In addition, under setting [8], the Z-score is given as 0.02075.
Consider `O=c1[nH]c2cc(Cl)ccc2c(O)c1-c1cccc(Oc2ccccc2)c1` [L-701,324], for which the “Raw Signal” value under setting [1] was found to be 49431. In addition, the Z-score under setting [2] was -0.8338.
Take `O=C(O)c1cc([N+](=O)[O-])ccc1NCCCc1ccccc1`: the “Raw Signal” value worked out at 51963 and the Z-score is given as -0.4084.
Take `C=CCn1c(=O)c2c(nc(-c3ccc(S(=O)(=O)O)cc3)n2C)n(C)c1=O`: the “Raw Signal” value under setting [5] was 65523. The same compound registered a Z-score under setting [6] of 1.34.
Take `Oc1ccc(Cn2cc[nH]c2=S)cc1` [1-(4-Hydroxybenzyl)imidazole-2-thiol]: the “Raw Signal” value under setting [1] turned out to be 52381. Besides, under setting [2], the Z-score is listed as -0.5658.
With `Cl.Clc1cc(I)cc(Cl)c1NC1=NCCN1` [p-Iodoclonidine hydrochloride], under setting [3], the “Raw Signal” value worked out at 52843. The Z-score under setting [4] is -0.2605.
For the compound `C1CNCCN1.COc1cc(C(O)CO)ccc1O.COc1cc(C(O)CO)ccc1O` (stereo not shown) [MHPG piperazine], the “Raw Signal” value under setting [5] is listed as 58694. This compound yielded a Z-score under setting [6] of 0.7163.
As to `CC/C(=C(\c1ccccc1)c1ccc(OCCN(C)C)cc1)c1ccccc1` [Tamoxifen citrate], the “Raw Signal” value under setting [5] came to 60879. Under setting [6], this compound showed a Z-score of 0.9433.
Take `NCC(=O)NCCC(c1ccccc1)c1ccccc1` [N-(3,3-Diphenylpropyl)glycinamide]: the “Raw Signal” value under setting [1] worked out at 66051. Under setting [7], the Z-score is listed as 2.21.
Consider `O=C(OCCN1CCCCC1)c1c[nH]c2ccccc12` [SB 203186], for which the “Raw Signal” value under setting [1] is given as 49486. In addition, the Z-score under setting [2] is recorded as -1.154.
Take `COc1ccccc1N1CCN(CCCCNC(=O)c2ccc3ccccc3c2)CC1` [BP 897]: under setting [5], the “Raw Signal” value was determined as 60942. Under setting [6], this compound had a Z-score of 0.5335.
As to `C=CCN1CC[C@]23c4c5ccc(O)c4O[C@@H]2/C(=N/N=C2\CC[C@@]4(O)C6Cc7ccc(O)c8c7[C@@]4(CCN6CC=C)[C@@H]2O8)CC[C@@]3(O)C1C5.Cl.Cl` [Naloxonazine dihydrochloride], the “Raw Signal” value under setting [1] came to 51290. Moreover, the Z-score under setting [2] is -0.5215.
`NN=C(N)N.NN=C(N)N.O=S(=O)(O)O` [Aminoguanidine hemisulfate]: the “Raw Signal” value under setting [3] is listed as 58107. The compound also showed a Z-score under setting [8] of 0.03415.
As for `O=C(NCC1CCCCN1)c1cc(OCC(F)(F)F)ccc1OCC(F)(F)F` (stereo not shown) [Flecainide acetate], the “Raw Signal” value under setting [1] is 50763. Also, under setting [2], the Z-score is on record as -0.8944.
For `Cl.NC1(C(=O)O)CCCCC1`, under setting [1], the “Raw Signal” value came to 53186. For the same compound, under setting [2], the Z-score is recorded as -0.8326.
In the case of `Nc1nc2c(nc(Br)n2[C@@H]2O[C@@H]3COP(=O)([O-])O[C@H]3[C@H]2O)c(=O)[nH]1.[Na+]` [8-Bromo-cGMP sodium], the “Raw Signal” value under setting [3] was 55323. The Z-score under setting [4] is recorded as -0.4562.
As for `N[C@H](C(=O)O)c1cc(O)cc(O)c1` [(S)-3,5-Dihydroxyphenylglycine], the “Raw Signal” value under setting [1] amounted to 63204. Moreover, the Z-score under setting [7] is 1.632.
For `C[C@]12CCC(=O)C(O)=C1CC[C@@H]1[C@@H]2CC[C@]2(C)C(=O)CC[C@@H]12` [4-Androsten-4-ol-3,17-dione], the “Raw Signal” value under setting [1] came out at 53811. Further, the Z-score under setting [2] is -0.7225.
As for `Br.Br.NC(N)=NCCSSCCN=C(N)N` [Guanidinoethyl disulfide dihydrobromide], the “Raw Signal” value under setting [5] was determined as 61778. Moreover, the Z-score under setting [6] came to 1.343.
Consider `CN1CCN(CC/C=C2/c3ccccc3Sc3ccc(S(=O)(=O)N(C)C)cc32)CC1.Cl` [Thiothixene hydrochloride], for which the “Raw Signal” value under setting [1] is listed as 52919. For the same compound, the Z-score under setting [2] was -0.6032.
Consider `O=C1NCN(c2ccccc2)C12CCN(CC1COc3ccccc3O1)CC2` (stereo not shown) [Spiroxatrine], for which the “Raw Signal” value under setting [3] worked out at 55965. Besides, under setting [8], the Z-score is given as -0.01142.
For `CN(C)c1nc(N(C)C)nc(N(C)C)n1` [Altretamine], the “Raw Signal” value under setting [1] is 69030. Moreover, the Z-score under setting [7] was 1.958.
Take `CCN(CC)CCCC(C)Nc1ccnc2cc(Cl)ccc12` (stereo not shown) [Chloroquine diphosphate]: the “Raw Signal” value is 55954 and the Z-score is given as -0.3451.
On to `NC(CO)C(=O)NNCc1ccc(O)c(O)c1O` (stereo not shown) [Benserazide hydrochloride], for which the “Raw Signal” value under setting [1] was 50551. In addition, the Z-score under setting [2] is recorded as -1.297.
Regarding `CCCCC#Cc1nc(N)c2ncn([C@@H]3O[C@H](C(=O)NCC)[C@@H](O)[C@H]3O)c2n1` [HE-NECA], the “Raw Signal” value under setting [5] came out at 57534. For the same compound, under setting [6], the Z-score came out at 0.4807.
Regarding `Cc1ccc(S(=O)(=O)N[C@@H](CCCCN)C(=O)CCl)cc1.Cl`, under setting [1], the “Raw Signal” value was found to be 53467. Besides, the Z-score under setting [2] is given as -0.4967.

The values above are taken from article PMC5706701, “Development of a homogenous high-throughput assay for inositol hexakisphosphate kinase 1 activity” (PLoS ONE, 2017).
